In ChEMBL document CHEMBL5226282, “TLR2 Agonistic Small Molecules: Detailed Structure-Activity Relationship, Applications, and Future Prospects” (J Med Chem, 2021):

Experiments:
[1] = target: Toll-like receptor 1/2 (Mus musculus); assay: Agonist activity at TLR2/TLR1 in mouse Macrophage cell line
[2] = target: Toll-like receptor 1/2 (Homo sapiens, UniProt O60603+Q15399); assay: Agonist activity at TLR2/TLR1 in human THP-1 cells; format: cell-based
Sequence of Toll-like receptor 1/2 (O60603 whole entry): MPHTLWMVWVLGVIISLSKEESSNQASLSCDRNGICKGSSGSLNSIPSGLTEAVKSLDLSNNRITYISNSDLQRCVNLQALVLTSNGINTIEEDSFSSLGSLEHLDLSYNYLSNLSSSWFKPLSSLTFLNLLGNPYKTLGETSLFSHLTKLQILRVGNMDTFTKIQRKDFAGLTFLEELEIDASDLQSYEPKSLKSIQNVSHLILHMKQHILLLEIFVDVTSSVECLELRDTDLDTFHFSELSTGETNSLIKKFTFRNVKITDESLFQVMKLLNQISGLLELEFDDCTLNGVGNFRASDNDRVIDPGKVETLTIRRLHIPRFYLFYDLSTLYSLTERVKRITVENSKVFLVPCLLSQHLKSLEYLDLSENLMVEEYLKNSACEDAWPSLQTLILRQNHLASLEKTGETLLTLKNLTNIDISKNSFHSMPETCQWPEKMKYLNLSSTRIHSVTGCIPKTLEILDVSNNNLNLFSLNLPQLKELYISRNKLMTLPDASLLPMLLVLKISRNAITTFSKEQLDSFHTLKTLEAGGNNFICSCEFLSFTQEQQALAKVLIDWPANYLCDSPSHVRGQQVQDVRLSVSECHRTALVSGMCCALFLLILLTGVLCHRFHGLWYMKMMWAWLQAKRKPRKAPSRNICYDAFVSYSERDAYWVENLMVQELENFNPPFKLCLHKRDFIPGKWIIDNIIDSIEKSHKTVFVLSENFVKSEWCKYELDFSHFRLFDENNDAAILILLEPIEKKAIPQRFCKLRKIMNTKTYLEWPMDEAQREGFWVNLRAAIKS
Sequence of Toll-like receptor 1/2 (Q15399 whole entry): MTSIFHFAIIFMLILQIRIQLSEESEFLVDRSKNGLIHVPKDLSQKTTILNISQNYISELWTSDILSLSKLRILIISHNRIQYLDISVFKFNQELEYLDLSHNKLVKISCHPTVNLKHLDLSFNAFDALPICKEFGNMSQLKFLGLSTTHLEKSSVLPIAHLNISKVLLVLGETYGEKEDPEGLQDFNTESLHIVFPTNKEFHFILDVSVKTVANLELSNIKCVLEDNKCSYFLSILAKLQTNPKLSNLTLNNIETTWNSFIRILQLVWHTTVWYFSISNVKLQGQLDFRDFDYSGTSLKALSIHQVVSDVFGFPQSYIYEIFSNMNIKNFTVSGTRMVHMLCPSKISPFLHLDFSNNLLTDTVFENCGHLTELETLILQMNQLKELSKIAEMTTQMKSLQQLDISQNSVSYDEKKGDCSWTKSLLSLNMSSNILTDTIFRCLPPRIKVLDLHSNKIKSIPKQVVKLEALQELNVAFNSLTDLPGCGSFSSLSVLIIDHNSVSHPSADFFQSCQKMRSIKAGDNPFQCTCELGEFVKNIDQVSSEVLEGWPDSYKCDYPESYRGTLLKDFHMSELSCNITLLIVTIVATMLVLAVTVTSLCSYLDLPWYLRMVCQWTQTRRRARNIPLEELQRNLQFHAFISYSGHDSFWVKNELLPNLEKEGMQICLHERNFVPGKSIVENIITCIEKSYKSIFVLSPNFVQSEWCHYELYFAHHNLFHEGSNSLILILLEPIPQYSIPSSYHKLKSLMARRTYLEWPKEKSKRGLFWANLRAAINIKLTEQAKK

Structure (SMILES) | EC50 [1] [nM] | EC50 [2] [nM]
COc1cc(C(=O)N2C[C@@H](C(=O)N[C@H]3C[C@@H]3c3ccccc3)[C@H](C(=O)N[C@H]3C[C@@H]3c3ccccc3)C2)ccc1C(=O)N1C[C@@H](C(=O)N[C@H]2C[C@@H]2c2ccccc2)[C@H](C(=O)N[C@H]2C[C@@H]2c2ccccc2)C1 | 250 | 30
CCCCCCCCCCCCCCNC(=O)[C@@H]1CN(C(=O)c2ccc(C(=O)N3C[C@@H](C(=O)N[C@H]4C[C@@H]4c4ccccc4)[C@H](C(=O)N[C@@H]4C[C@H]4c4ccccc4)C3)cc2)C[C@H]1C(=O)NCCCCCCCCCCCCCC | 10 | 0.17
O=C(N[C@H]1C[C@@H]1c1ccc(Cl)cc1)[C@@H]1CN(C(=O)c2ccc(C(=O)N3C[C@@H](C(=O)N[C@H]4C[C@@H]4c4ccc(Cl)cc4)[C@H](C(=O)N[C@@H]4C[C@H]4c4ccc(Cl)cc4)C3)cc2)C[C@H]1C(=O)N[C@H]1C[C@@H]1c1ccc(Cl)cc1 | 5000 | 40
O=C(N[C@H]1C[C@@H]1c1ccccc1)[C@@H]1CN(C(=O)COCC(=O)N2C[C@@H](C(=O)N[C@H]3C[C@@H]3c3ccccc3)[C@H](C(=O)N[C@H]3C[C@@H]3c3ccccc3)C2)C[C@H]1C(=O)N[C@H]1C[C@@H]1c1ccccc1 | > 5000 | > 5000
O=C(N[C@H]1C[C@@H]1c1ccc(F)cc1)[C@@H]1CN(C(=O)c2ccc(C(=O)N3C[C@@H](C(=O)N[C@H]4C[C@@H]4c4ccc(F)cc4)[C@H](C(=O)N[C@@H]4C[C@H]4c4ccc(F)cc4)C3)cc2)C[C@H]1C(=O)N[C@H]1C[C@@H]1c1ccc(F)cc1 | 1.2 | 0.13
CCCCCCCCCCCCCCNC(=O)[C@@H]1CN(C(=O)c2ccc(C(=O)N3C[C@@H](C(=O)N[C@H]4C[C@@H]4c4ccccc4)[C@H](C(=O)N[C@@H]4C[C@H]4c4ccccc4)C3)cc2)C[C@H]1C(=O)N[C@H]1C[C@@H]1c1ccccc1 | 1.1 | 0.08
O=C(NCCc1ccc(F)cc1)[C@@H]1CN(C(=O)COCC(=O)N2C[C@@H](C(=O)NCCc3ccc(F)cc3)[C@H](C(=O)NCCc3ccc(F)cc3)C2)C[C@H]1C(=O)NCCc1ccc(F)cc1 | > 5000 | > 5000
O=C(N[C@H]1C[C@@H]1c1ccccc1)[C@@H]1CN(C(=O)c2ccc(-c3ccc(C(=O)N4C[C@@H](C(=O)N[C@H]5C[C@@H]5c5ccccc5)[C@H](C(=O)N[C@H]5C[C@@H]5c5ccccc5)C4)cc3)cc2)C[C@H]1C(=O)N[C@H]1C[C@@H]1c1ccccc1 | 2300 | 90
O=C(N[C@H]1C[C@@H]1c1ccccc1)[C@@H]1CN(C(=O)c2cccc3c(C(=O)N4C[C@@H](C(=O)N[C@H]5C[C@@H]5c5ccccc5)[C@H](C(=O)N[C@H]5C[C@@H]5c5ccccc5)C4)cccc23)C[C@H]1C(=O)N[C@H]1C[C@@H]1c1ccccc1 | > 5000 | > 5000
O=C(N[C@H]1C[C@@H]1c1ccccc1)[C@@H]1CN(C(=O)c2ccc(C(=O)N3C[C@@H](C(=O)N[C@H]4C[C@@H]4c4ccccc4)[C@H](C(=O)N[C@H]4C[C@@H]4c4ccccc4)C3)c3ccccc23)C[C@H]1C(=O)N[C@H]1C[C@@H]1c1ccccc1 | > 5000 | > 5000
O=C(N[C@H]1C[C@@H]1c1ccccc1)[C@@H]1CN(C(=O)[C@H]2CC[C@@H](C(=O)N3C[C@@H](C(=O)N[C@H]4C[C@@H]4c4ccccc4)[C@H](C(=O)N[C@H]4C[C@@H]4c4ccccc4)C3)CC2)C[C@H]1C(=O)N[C@H]1C[C@@H]1c1ccccc1 | > 5000 | > 5000
O=C(N[C@H]1C[C@@H]1c1ccccc1)[C@@H]1CN(C(=O)c2ccc(C(=O)N3C[C@@H](C(=O)N[C@H]4C[C@@H]4c4ccccc4)[C@H](C(=O)N[C@H]4C[C@@H]4c4ccccc4)C3)s2)C[C@H]1C(=O)N[C@H]1C[C@@H]1c1ccccc1 | > 5000 | 350
O=C(N[C@H]1C[C@@H]1c1ccccc1)[C@@H]1CN(C(=O)c2c(F)c(F)c(C(=O)N3C[C@@H](C(=O)N[C@H]4C[C@@H]4c4ccccc4)[C@H](C(=O)N[C@H]4C[C@@H]4c4ccccc4)C3)c(F)c2F)C[C@H]1C(=O)N[C@H]1C[C@@H]1c1ccccc1 | > 5000 | 110
O=C(NCCc1ccc(F)cc1)[C@@H]1CN(C(=O)c2cccc(C(=O)N3C[C@@H](C(=O)NCCc4ccc(F)cc4)[C@H](C(=O)NCCc4ccc(F)cc4)C3)c2)C[C@H]1C(=O)NCCc1ccc(F)cc1 | > 5000 | > 5000

Second part, the compound after the results:

EC50 [1] [nM] | EC50 [2] [nM] | Structure (SMILES)
> 5000 | > 5000 | O=C(NCCc1ccc(F)cc1)[C@@H]1CN(C(=O)[C@@H]2CCC[C@H](C(=O)N3C[C@@H](C(=O)NCCc4ccc(F)cc4)[C@H](C(=O)NCCc4ccc(F)cc4)C3)C2)C[C@H]1C(=O)NCCc1ccc(F)cc1
> 5000 | > 5000 | O=C(N[C@H]1C[C@@H]1c1ccccc1)[C@@H]1CN(C(=O)[C@@H]2CCC[C@H](C(=O)N3C[C@@H](C(=O)N[C@H]4C[C@@H]4c4ccccc4)[C@H](C(=O)N[C@H]4C[C@@H]4c4ccccc4)C3)C2)C[C@H]1C(=O)N[C@H]1C[C@@H]1c1ccccc1
130 | 0.2 | O=C(N[C@H]1C[C@@H]1c1ccccc1)[C@@H]1CN(C(=O)/C=C/C=C/C(=O)N2C[C@@H](C(=O)N[C@H]3C[C@@H]3c3ccccc3)[C@H](C(=O)N[C@H]3C[C@@H]3c3ccccc3)C2)C[C@H]1C(=O)N[C@H]1C[C@@H]1c1ccccc1
2.1 | 0.1 | CCCCCCCCCCCCNC(=O)[C@@H]1CN(C(=O)c2ccc(C(=O)N3C[C@@H](C(=O)N[C@H]4C[C@@H]4c4ccccc4)[C@H](C(=O)N[C@@H]4C[C@H]4c4ccccc4)C3)cc2)C[C@H]1C(=O)N[C@H]1C[C@@H]1c1ccccc1
710 | 3.5 | CCCCCCCCNC(=O)[C@@H]1CN(C(=O)c2ccc(C(=O)N3C[C@@H](C(=O)NCCCCCCCC)[C@H](C(=O)N[C@@H]4C[C@H]4c4ccccc4)C3)cc2)C[C@H]1C(=O)N[C@@H]1C[C@H]1c1ccccc1
> 5000 | 130 | O=C(N[C@H]1C[C@@H]1c1ccccc1)[C@@H]1CN(C(=O)Cc2cnc(CC(=O)N3C[C@@H](C(=O)N[C@H]4C[C@@H]4c4ccccc4)[C@H](C(=O)N[C@H]4C[C@@H]4c4ccccc4)C3)cn2)C[C@H]1C(=O)N[C@H]1C[C@@H]1c1ccccc1
> 5000 | > 5000 | O=C(N[C@H]1C[C@@H]1c1ccccc1)[C@@H]1CN(C(=O)/C=C/C(=O)N2C[C@@H](C(=O)N[C@H]3C[C@@H]3c3ccccc3)[C@H](C(=O)N[C@H]3C[C@@H]3c3ccccc3)C2)C[C@H]1C(=O)N[C@H]1C[C@@H]1c1ccccc1
1000 | 2.5 | CCCCCCCCCCCCCCCCNC(=O)[C@@H]1CN(C(=O)c2ccc(C(=O)N3C[C@@H](C(=O)N[C@H]4C[C@@H]4c4ccccc4)[C@H](C(=O)N[C@@H]4C[C@H]4c4ccccc4)C3)cc2)C[C@H]1C(=O)NCCCCCCCCCCCCCCCC
270 | 4 | O=C(N[C@H]1C[C@@H]1c1ccccc1)[C@@H]1CN(C(=O)c2ccc(C(=O)N3C[C@@H](C(=O)N[C@H]4C[C@@H]4c4ccccc4)[C@H](C(=O)N[C@H]4C[C@@H]4c4ccccc4)C3)nc2)C[C@H]1C(=O)N[C@H]1C[C@@H]1c1ccccc1
620 | 1.3 | CCCCCCCCCCCCNC(=O)[C@@H]1CN(C(=O)c2ccc(C(=O)N3C[C@@H](C(=O)N[C@H]4C[C@@H]4c4ccccc4)[C@H](C(=O)N[C@@H]4C[C@H]4c4ccccc4)C3)cc2)C[C@H]1C(=O)NCCCCCCCCCCCC
> 5000 | 200 | O=C(O)[C@@H]1CN(C(=O)c2ccc(C(=O)N3C[C@@H](C(=O)N[C@H]4C[C@@H]4c4ccccc4)[C@H](C(=O)N[C@@H]4C[C@H]4c4ccccc4)C3)cc2)C[C@H]1C(=O)N[C@H]1C[C@@H]1c1ccccc1
650 | 0.1 | CCCCCCCCCCNC(=O)[C@@H]1CN(C(=O)c2ccc(C(=O)N3C[C@@H](C(=O)N[C@H]4C[C@@H]4c4ccccc4)[C@H](C(=O)N[C@@H]4C[C@H]4c4ccccc4)C3)cc2)C[C@H]1C(=O)N[C@H]1C[C@@H]1c1ccccc1
> 5 | > 5 | CCCCCCCCCCCCNC(=O)[C@@H]1CN(C(=O)c2ccc(C(=O)N3C[C@@H](C(=O)NCCCCCCCCCCCC)[C@H](C(=O)NCCCCCCCCCCCC)C3)cc2)C[C@H]1C(=O)NCCCCCCCCCCCC
4 | 0.18 | CCCCCCCCCCNC(=O)[C@@H]1CN(C(=O)c2ccc(C(=O)N3C[C@@H](C(=O)N[C@H]4C[C@@H]4c4ccccc4)[C@H](C(=O)N[C@@H]4C[C@H]4c4ccccc4)C3)cc2)C[C@H]1C(=O)NCCCCCCCCCC
1100 | 0.8 | CCCCCCNC(=O)[C@@H]1CN(C(=O)c2ccc(C(=O)N3C[C@@H](C(=O)NCCCCCC)[C@H](C(=O)N[C@@H]4C[C@H]4c4ccccc4)C3)cc2)C[C@H]1C(=O)N[C@@H]1C[C@H]1c1ccccc1
> 5000 | > 5000 | O=C(N[C@H]1C[C@@H]1c1ccccc1)[C@@H]1CN(C(=O)Cc2cccc(CC(=O)N3C[C@@H](C(=O)N[C@H]4C[C@@H]4c4ccccc4)[C@H](C(=O)N[C@H]4C[C@@H]4c4ccccc4)C3)c2)C[C@H]1C(=O)N[C@H]1C[C@@H]1c1ccccc1
> 5000 | > 5000 | O=C(NCCc1ccc(F)cc1)[C@@H]1CN(C(=O)[C@H]2CC[C@@H](C(=O)N3C[C@@H](C(=O)NCCc4ccc(F)cc4)[C@H](C(=O)NCCc4ccc(F)cc4)C3)CC2)C[C@H]1C(=O)NCCc1ccc(F)cc1
> 5000 | > 5000 | N#Cc1ccc([C@H]2C[C@@H]2NC(=O)[C@@H]2CN(C(=O)c3ccc(C(=O)N4C[C@@H](C(=O)N[C@H]5C[C@@H]5c5ccc(C#N)cc5)[C@H](C(=O)N[C@@H]5C[C@H]5c5ccc(C#N)cc5)C4)cc3)C[C@H]2C(=O)N[C@H]2C[C@@H]2c2ccc(C#N)cc2)cc1
30 | 2 | CCCCNC(=O)[C@@H]1CN(C(=O)c2ccc(C(=O)N3C[C@@H](C(=O)N[C@H]4C[C@@H]4c4ccccc4)[C@H](C(=O)N[C@@H]4C[C@H]4c4ccccc4)C3)cc2)C[C@H]1C(=O)N[C@H]1C[C@@H]1c1ccccc1
> 5000 | 1600 | O=C(N[C@H]1C[C@@H]1c1ccc(Br)cc1)[C@@H]1CN(C(=O)c2ccc(C(=O)N3C[C@@H](C(=O)N[C@H]4C[C@@H]4c4ccc(Br)cc4)[C@H](C(=O)N[C@@H]4C[C@H]4c4ccc(Br)cc4)C3)cc2)C[C@H]1C(=O)N[C@H]1C[C@@H]1c1ccc(Br)cc1
